Measured values reported in US10945969B2, “Compositions containing thymohydroquinone and their method of preparation” (SAMI LABS LIMITED, priority 2017, dated 2021).

Tests used:
[1] = compared with thymoquinone; cited from earlier work
[2] = Accelerated stability study; assay type: physicochemical; details: for THQ content by GC (%) / Difference in THQ content (%) / Percentage difference in THQ / TQ content by GC (%) / Difference in TQ content / Percentage difference in TQ: accelerated stability
[3] = compared with thymoquinone; cited from earlier work; remark: listed apart in the source
[4] = Long term stability study; assay type: physicochemical
[5] = over the accelerated stability study

Cc1cc(O)c(C(C)C)cc1O [THQ, thymohydroquinone]
anti-inflammatory potential [1]: more potent | THQ content by GC (%) ([2]; 1st month): 0.037% | Difference in THQ content (%) ([2]; 1st month vs initial): 0.004% | Percentage difference in THQ ([2]; 1st month vs initial): +12.12% | THQ content by GC (%) ([2]; 2nd month): 0.041% | Difference in THQ content (%) ([2]; 2nd month vs initial): 0.008% | Percentage difference in THQ ([2]; 2nd month vs initial): +24.24% | THQ content by GC (%) ([2]; 3rd month): 0.092% | Difference in THQ content (%) ([2]; 3rd month vs initial): 0.059% | Percentage difference in THQ ([2]; 3rd month vs initial): +178.78% | THQ content by GC (%) ([2]; 6th month): 0.120% | Difference in THQ content (%) ([2]; 6th month vs initial): 0.087% | Percentage difference in THQ ([2]; 6th month vs initial): +263.63% | Difference in THQ content (%) ([2]; Initial (0 month)): 0% | Percentage difference in THQ ([2]; Initial (0 month)): 0% | THQ content by GC (%) ([2]; Initial (0 month)): 0.033% | thymohydroquinone quantity, trend [2, 5]: gradual increase | antioxidant potential [3]: more potent | THQ content by GC (%) ([4]; 3rd month): 0.095% | Difference in THQ content ([4]; 3rd month vs initial): 0.062% | Percentage difference in THQ ([4]; 3rd month vs initial): +187.88% | THQ content by GC (%) ([4]; 6th month): 0.138% | Difference in THQ content ([4]; 6th month vs initial): 0.105% | Percentage difference in THQ ([4]; 6th month vs initial): +318.18% | Difference in THQ content ([4]; Initial (0 Month)): 0% | Percentage difference in THQ ([4]; Initial (0 Month)): 0% | THQ content by GC (%) ([4]; Initial (0 Month)): 0.033%

CC1=CC(=O)C(C(C)C)=CC1=O [TQ, thymoquinone]
TQ content by GC (%) ([2]; 1st month): 0.717% | Difference in TQ content ([2]; 1st month vs initial): 0.016% | Percentage difference in TQ ([2]; 1st month vs initial): −2.18% | TQ content by GC (%) ([2]; 2nd month): 0.706% | Difference in TQ content ([2]; 2nd month vs initial): 0.027% | Percentage difference in TQ ([2]; 2nd month vs initial): −3.68% | TQ content by GC (%) ([2]; 3rd month): 0.622% | Difference in TQ content ([2]; 3rd month vs initial): 0.111% | Percentage difference in TQ ([2]; 3rd month vs initial): −15.14% | TQ content by GC (%) ([2]; 6th month): 0.548% | Difference in TQ content ([2]; 6th month vs initial): 0.185% | Percentage difference in TQ ([2]; 6th month vs initial): −25.23% | Difference in TQ content ([2]; Initial (0 month)): 0% | Percentage difference in TQ ([2]; Initial (0 month)): 0% | TQ content by GC (%) ([2]; Initial (0 month)): 0.733% | content of thymoquinone, trend [2, 5]: decrease | TQ content by GC (%) ([4]; 3rd month): 0.643% | Difference in TQ content ([4]; 3rd month vs initial): 0.09% | Percentage difference in TQ ([4]; 3rd month vs initial): −12.27% | TQ content by GC (%) ([4]; 6th month): 0.634% | Difference in TQ content ([4]; 6th month vs initial): 0.099% | Percentage difference in TQ ([4]; 6th month vs initial): −13.50% | Difference in TQ content ([4]; Initial (0 Month)): 0% | Percentage difference in TQ ([4]; Initial (0 Month)): 0% | TQ content by GC (%) ([4]; Initial (0 Month)): 0.733%
